For assay [1], the system named is breast cancer cells (MDA-MB-231). Put plainly: MTT cytotoxicity assay, MDA-MB-231. It is filed as cell-based, human. The note with it: 72-h incubation. On the procedure:
(§1) The above cells were tested for cytotoxicity to identify the most promising antitumor drug among the synthesized quinazolinone derivatives.
(§2) An MTT assay was used to evaluate the in vitro cytotoxicity of the new compounds. The MTT assay depends on the reduction of soluble 3-([…])-2,5-diphenyl-tetrazolium bromide (MTT) into a blue purple formazan product, mainly by mitochondrial reductase activity inside living cells. […] The cells were suspended in growth medium and plated in 96-well culture plates at a density of 4 × 10^4 cells/well and incubated at 37 °C in a 5% CO2 incubator. […] Each experiment was performed at least 3 times.
A general note: Tetrazolium assays rely on reduction of a dye to a coloured formazan, in cell work by metabolically active cells.

For assay [2], the system named is ovarian cancer cells (A2780). Put plainly: MTT cytotoxicity assay, A2780. The following applies: 72-h incubation. In kind it is cell-based, human. On the procedure:
as §1, §2

The test system of assay [3] is human hepatic stellate cells (LX-2). The assay can be described thus: MTT cytotoxicity assay, LX-2 normal control. It is filed as cell-based. The note with it: 72-h incubation. Here is the method:
as §1, §2

The nature of assay [4]: DPPH• free radical scavenging assay. The note with it: for IC50: concentration required to scavenge 50% of the DPPH, 30 min in the dark; for antioxidant activity (in words): DPPH assay. On the procedure:
The quinazolinone derivatives were evaluated for their free radical scavenging activity at 320, 160, 80, 40, 20, and 10 µM concentration using the DPPH radical method, with ascorbic acid as the positive control (Table 3).
The antiradical activity of the compounds was estimated according to a slight modification of the procedure reported by Morales and Jimenez-Perez. […] Each sample (100 μL) at a different concentration was added to a freshly prepared solution of 1,1-diphenyl-2-picrylhydrazyl (DPPH•) radical (0.2 mM, 100 μL). The mixtures (200 μL) were placed in a 96-well microplate, shaken vigorously, and then left to stand for 30 min in the dark. Then, absorbance was immediately measured at a wavelength of 517 nm. Vc was used as the standard. The antiradical activity for each compound was determined in the Vc equivalent antioxidant capacity. The DPPH• solution in the presence of ethanol and in the absence of compounds was tested and used as a negative control. […] In all experiments, the samples were analyzed in triplicate, and activity for each compound was presented as the mean value ± SEM and used for evaluation of structure–activity relationships. […] Absorbance was taken at 520 nm using a microplate reader (Tecan, Männedorf, Switzerland).
Background: Loss of DPPH colour is used to gauge radical scavenging.

Assay [5] deals with human liver cancer cells (HepG-2). The assay can be described thus: MTT cytotoxicity assay, HepG-2. In kind it is cell-based. The following applies: 72-h incubation. Here is the method:
as §1, §2

A value given as a limit tells only on which side of the number the result lay.

The term IC50 denotes the concentration that inhibits the measured activity by half. High values mean lower potency, low ones higher potency. As to “4-{2-{1-(3-ammoniopropyl)-2-oxo-6-[2-(thiophen-2-yl)acetamido]-1,2,3,4-tetrahydroquinazolin-4-yl}acetamido}-4-carbamoylpiperidin-1-aminium 2,2,2-trifluoroacetate [CA5]”, the concentration for half-maximal inhibition (IC50) in assay [1] was 74.81 ± 0.27 µM; in assay [2] it was 32.3 ± 6.21 µM; in assay [3], more than 100 µM; in assay [4], 465 ± 8.61 µM; in assay [5], 65.5 ± 3.16 µM.
As to `NCCCN1C(=O)NC(CC(=O)NC(CO)C(N)=O)c2cc(NC(=O)Cc3cccs3)ccc21` (centres unmarked) [CA1-i, 3-{4-{2-[(1-amino-3-hydroxy-1-oxopropan-2-yl)amino]-2-oxoethyl}-2-oxo-6-[2-(thiophen-2-yl)acetamido]-3,4-dihydroquinazolin-1(2H)-yl}propan-1-aminium 2,2,2-trifluoroacetate], the IC50 in assay [1] (Homo sapiens) was 89.7 ± 3.79 µM; in assay [2], 34.4 ± 5.61 µM; in assay [2] (Homo sapiens, A2780, 72 h), less than 40 µM; in assay [3] (Homo sapiens), more than 100 µM; in assay [4], 557 ± 24.5 µM; in assay [5] (Homo sapiens, HepG2, 72 h), 49.77 ± 0.12 µM.
Turning to `NCCCN1C(=O)NC(CC(=O)NC(CO)C(N)=O)c2cc(NC(=O)c3cccnc3)ccc21.O=C(O)C(F)(F)F` (centres unmarked) [CA1-e, 3-{4-{2-[(1-amino-3-hydroxy-1-oxopropan-2-yl)amino]-2-oxoethyl}-6-(nicotinamido)-2-oxo-3,4-dihydroquinazolin-1(2H)-yl}propan-1-aminium 2,2,2-trifluoroacetate], the 50% inhibitory concentration (IC50) was 85.7 ± 5.3 µM in assay [1] (Homo sapiens); 22.76 ± 0.22 µM in assay [2]; less than 40 µM in assay [2] (Homo sapiens, A2780, 72 h); more than 100 µM in assay [3] (Homo sapiens); more than 1000 µM in assay [4]; 37.6 ± 5.53 µM in assay [5]. Moreover, in assay [5] (Homo sapiens, HepG2, 72 h), the half-inhibitory concentration (IC50) is less than 50 µM. Also, the “antioxidant activity (in words)” value in assay [4] is given as “no antioxidant activity”.
`NCCCN1C(=O)NC(CC(=O)NC(CO)C(N)=O)c2cc(NC(=O)CCc3cccnc3)ccc21` (centres unmarked) [CA1-h, 3-{4-{2-[(1-amino-3-hydroxy-1-oxopropan-2-yl)amino]-2-oxoethyl}-2-oxo-6-[3-(pyridin-3-yl)propanamido]-3,4-dihydroquinazolin-1(2H)-yl}propan-1-aminium 2,2,2-trifluoroacetate]: the 50% inhibitory concentration (IC50) is 82.2 ± 11.4 µM in assay [1] (Homo sapiens); 86.1 ± 3.73 µM in assay [2] (Homo sapiens, A2780, 72 h); 97.5 ± 3.52 µM in assay [3] (Homo sapiens); more than 1000 µM in assay [4]; 56.93 ± 0.47 µM in assay [5] (Homo sapiens, HepG2, 72 h).
For `Cc1ccc(C(=O)Nc2ccc3c(c2)C(CC(=O)NC(CO)C(N)=O)NC(=O)N3CCCN)cc1` (centres unmarked) [CA1-c, 3-{4-{2-[(1-amino-3-hydroxy-1-oxopropan-2-yl)amino]-2-oxoethyl}-6-(4-methylbenzamido)-2-oxo-3,4-dihydroquinazolin-1(2H)-yl}propan-1-aminium 2,2,2-trifluoroacetate], the concentration for half-maximal inhibition (IC50) in assay [1] (Homo sapiens) is 92.4 ± 4.91 µM; in assay [2] (Homo sapiens, A2780, 72 h), more than 100 µM; in assay [3] (Homo sapiens), 85.4 ± 1.78 µM; in assay [4], 387 ± 58.8 µM; in assay [5] it was 48.1 ± 2.34 µM; in assay [5] (Homo sapiens, HepG2, 72 h), less than 50 µM.
Turning to `CN1C(=O)NC(CC(N)=O)c2cc(NC(=O)COc3ccccc3)ccc21` (centres unmarked) [CA6-b, N-[4-(2-amino-2-oxoethyl)-1-methyl-2-oxo-1,2,3,4-tetrahydroquinazolin-6-yl]-2-phenoxyacetamide], the IC50 in assay [1] (Homo sapiens) was more than 100 µM; in assay [2] (Homo sapiens, A2780, 72 h), more than 100 µM; in assay [3] (Homo sapiens) it was more than 100 µM; in assay [4], more than 1000 µM; in assay [5] (Homo sapiens, HepG2, 72 h), 88 ± 1.39 µM.
`O=C1O[C@H]([C@@H](O)CO)C(O)=C1O` [Vc, ascorbic acid, reference compound] showed an IC50 in assay [4] of 22.5 ± 0.57 µM.
Take `NCCCN1C(=O)NC(CC(=O)NC(CO)C(N)=O)c2cc(NC(=O)COc3ccccc3)ccc21.O=C(O)C(F)(F)F` (centres unmarked) [CA1-g, 3-{4-{2-[(1-amino-3-hydroxy-1-oxopropan-2-yl)amino]-2-oxoethyl}-2-oxo-6-(2-phenoxyacetamido)-3,4-dihydroquinazolin-1(2H)-yl}propan-1-aminium 2,2,2-trifluoroacetate]: the IC50 in assay [1] (Homo sapiens) is 82.21 ± 0.59 µM; in assay [2], 24.9 ± 7.22 µM; in assay [2] (Homo sapiens, A2780, 72 h), less than 40 µM; in assay [3] (Homo sapiens) it was more than 100 µM; in assay [4], more than 1000 µM; in assay [5], 45.4 ± 0.59 µM. The compound further returned an IC50 in assay [5] (Homo sapiens, HepG2, 72 h) of less than 50 µM. In assay [4], the “antioxidant activity (in words)” value is listed as “no antioxidant activity”.

Source of the values: publication PMC9737648, “Novel Approaches for the Solid-Phase Synthesis of Dihydroquinazoline-2(1H)-One Derivatives and Biological Evaluation as Potential Anticancer Agents” (Molecules, 2022).
